Results reported in patent US20250222109A1, “STRUCTURED LIPID COMPOSITIONS” (Universität Bern, priority 2022, published 2025).

Experiments:
Type in all cases: physicochemical
[1] = SAXS phase identification of MLO-water mesophases (TIF-Gel); settings: 10% w/w of drug; lamellar at room temperature, cubic (Ia3d) at 38° C.
Protocol: SAXS measurements were used to determine the phase identity and symmetry of the produced LMPs. Measurements were performed on a Bruker AXS Micro, with a microfocused X-ray source, operating at voltage and filament current of 50 kV and 1000 μA, respectively. The Cu Kα radiation (λCu Kα=1.5418 Å) was collimated by a 2D Kratky collimator, and the data were collected by a 2D Pilatus 100K detector. The scattering vector Q=(4π/λ) sin θ, with 2θ being the scattering angle, was calibrated using silver behenate. Data were collected and azimuthally averaged using the Saxsgui software to yield 1D intensity vs. scattering vector Q, with a Q range from 0.001 to 0.5 Å^−1. For all measurements the samples were placed inside a stainless-steel cell between two thin replaceable mica sheets and sealed by an O-ring, with a sample volume of 10 μL and a thickness of ˜1 mm. Measurements were performed at 25° C., 30° C., 34° C., 36° C. and 38° C. Samples were equilibrated for 10 min before measurements whereas scattered intensity was collected over 30 min and over 60 min in case of lamellar phase. On the other hand, for the kinetic study, the sample was pre equilibrated at 25° C. and inserted in the sample holder kept at 38° C. and the scattered intensity collected over 5 min. To determine the structural parameters such as the size of the water channels, SAXS data information on the lattice were combined with the composition of the samples (R. Mezzenga, et al., Shear rheology of lyotropic liquid crystals: a case study, Langmuir 21, 3322-3333 (2005)).
MLO was used as the lipid component of the mesophases and mixed with weighed amounts of drugs (10% w/w) in sealed Pyrex tubes and alternatively centrifuging (10 min, 5000 g) several times at room temperature until a homogenous mixture was obtained. The mesophase was then equilibrated for 48 h at room temperature in the dark (see, FIGS. 1A and 1B).
Firstly, small angle X-ray scattering (SAXS) measurements were used to determine the optimal amount of water needed to obtain a lamellar phase which provides a transition to a cubic at 38° C. (FIGS. 2B and 2C). The X-ray beam directed at the gel results in a scattering pattern with a set of maxima, that correspond to sharp Bragg reflections characteristic of the long-range positional order. The sequence of Bragg reflections (and their ratio; listed in FIG. 2A) identifies the symmetry of the mesophase studied (See also FIGS. 1A and 1B).

[2] = Drug encapsulation and distribution in TIF-Gel (WAXS, HPLC of gel layers)
Protocol: The tube was centrifuged and kept at rest for 24 hours. Subsequently, the gel was divided into 3 different layers (Top, Middle, and Bottom), and the drug content evaluated in each by HPLC.
WAXS measurements were performed on a Bruker AXS Micro, with a microfocused X-ray source, operating at voltage and filament current of 50 kV and 1000 μA, respectively. The Cu Kα radiation (λCu Kα=1.5418 Å) was collimated by a 2D Kratky collimator, and the data were collected by a 2D Pilatus 100K detector. The scattering vector Q=(4π/λ) sin θ, with 2θ being the scattering angle, was calibrated using silver behenate. Data were collected and azimuthally averaged using the Saxsgui software to yield 1D intensity vs. scattering vector Q, with a Q range from 13 to 18 nm-1. For all measurements the samples were placed inside a stainless-steel cell between two thin replaceable mica sheets and sealed by an O-ring, with a sample volume of 10 μL and a thickness of ˜1 mm.
The TAC loaded mesophase composition comprised: a) a carrier comprising: a1) water in an amount of 16% by weight of the carrier; and a2) MLO in an amount of 84% by weight of the carrier; and b) TAC in an amount of 1% by weight of the composition.

[3] = SAXS phase identification of MLO-water mesophases (TIF-Gel); settings: 5 mg of TOFA and 1 mg of TAC in 100 mg of gel

distribution of drug in the gel matrix ([2]; Top, Middle and Bottom gel layers, HPLC): homogeneously distributed
drug crystallisation in the gel (WAXS) ([2]; embedded in the 3D gel structure): do not form crystals
encapsulation efficacy ([2]; encapsulated in the TIF-Gel): 100%
SMILES: C=CC[C@@H]1/C=C(\C)C[C@H](C)C[C@H](OC)[C@H]2O[C@@](O)(C(=O)C(=O)N3CCCC[C@H]3C(=O)O[C@H](/C(C)=C/[C@@H]3CC[C@@H](O)[C@H](OC)C3)[C@H](C)[C@@H](O)CC1=O)[C@H](C)C[C@@H]2OC [TAC, tacrolimus]
effect of drug on phase identity and transition temperature of the gel [1]: did not affect the phase identity and the transition temperature
effect of drug entrapment on phase identity and thermal behaviour of the carrier gel [3]: did not affect the phase identity and thermal behaviour
